Here are results for 2 molecules from patent US7335668B2, “Pharmaceutical composition for therapy of interstitial cystitis” (priority 2001, dated 2008).

The structures appear in SMILES notation.

Assay [1] concerns capsaicin-sensitive sensory nerve. The assay can be described thus: Plasma protein extravasation induced by capsaicin in the mouse bladder (Evans blue). Format: in vivo. To be noted: for intravesical concentration that inhibited extravascular leakage of plasma proteins (depressant action on capsaicin-sensitive sensory nerve): mouse bladder, infused intravesically; for reduction of capsaicin-induced increase in Evans blue dye content in the bladder: female Balb/c mice, 100 μL, about one hour before capsaicin 300 μg/kg i.v. The method, then: In the experiment, four or five female Balb/c mice (Japan SLC, Inc.) per group were used. A catheter was inserted into the bladder of a mouse anesthetized with urethane (intraperitoneally administered with 0.15 ml of a 20% solution per mouse) via the urethra, and after emptying the bladder, a physiological saline or drug solution was injected. This catheter was prepared by blunting the tip of a 24-guage hypodermic needle and making a side hole at 2 mm from the newly prepared tip. About one hour after the instillation into the bladder, extravascular leakage of plasma proteins due to inflammatory reaction caused by stimulation of the capsaicin-sensitive sensory nerve according to the method of Maggi, et al. (Nauny-Schmiedeberg's Arch. Pharmacol., 336: pp.546-555(1987)). That is Evans blue (30 mg/kg) a dye bound by plasma proteins and capsaicin (300 μg/kg) were administered to the mouse from the tail vein, and precisely five minutes after the administration, the mouse was killed by cervical dislocation, then the bladder was removed. After removing urine and blood remaining in the tissue, the dye in the organs was quantitatively determined. Evans blue dye was extracted from the bladder by placing the tissue in 150 μL of formamide overnight, and was quantitatively determined by measuring light absorbance at a wavelength of 620 nm of 100 μL supernatant in a 96-well microplate. In addition, the content of Evans blue dye in one milligram of wet tissue was calculated. Moreover, the mouse intravesically instilled with physiological saline and intravenously administered with a capsaicin-free Evans blue solution served as a normal control. […] Capsaicin and formamide were purchased from Wako Pure Chemical Industries, Ltd., and Evans blue was purchased from Aldrich. […] Results were shown as [(mean values)±(standard errors of the mean)]. The Student's t-test was used to determine the significance of difference between the group of mice receiving […] saline and stimulated with capsaicin e and the group of normal control mice.

Assay [2] deals with rhythmic bladder contraction. To be noted: as disclosed in International Patent Publication No. 96/20194; cited from earlier work.

With `O=C(OC1CN2CCC1CC2)N1CCc2ccccc2C1c1ccccc1` (stereo not drawn) [Compound A, quinuclidin-3′-yl 1-phenyl-1,2,3,4-tetrahydroisoquinoline-2-carboxylate], the “intravesical concentration that inhibited extravascular leakage of plasma proteins (depressant action on capsaicin-sensitive sensory nerve)” value in assay [1] is not below 1 µM. For the same molecule, the “effect on rat rhythmic bladder contraction” value in assay [2] is “inhibitory effects on rat rhythmic bladder contraction”.
Consider `O=C(O[C@H]1CN2CCC1CC2)N1CCc2ccccc2[C@@H]1c1ccccc1` [Compound 1, (+)-(1S,3′R)-quinuclidin-3′-yl 1-phenyl-1,2,3,4-tetrahydroisoquinoline-2-carboxylate], for which the “reduction of capsaicin-induced increase in Evans blue dye content in the bladder” value in assay [1] (injected intravesically at 1 μM) is on record as 52%; in assay [1] (injected intravesically at 10 μM), 76%; in assay [1] (injected intravesically at 100 μM) it was 80%. Further, in assay [1], the “intravesical concentration that inhibited extravascular leakage of plasma proteins (depressant action on capsaicin-sensitive sensory nerve)” value is not below 1 µM.
